From ChEMBL document CHEMBL2440045, “The synthesis and anticancer activity of analogs of the indole phytoalexins brassinin, 1-methoxyspirobrassinol methyl ether and cyclobrassinin” (Bioorg Med Chem, 2013)

Key:
A549 [1] = assay: Antiproliferative activity against human A549 cells assessed as cell viability after 72 hrs by MTT assay; assay type: functional, cell-based; conditions: A549, 72 h
[2] = Selectivity index, ratio of IC50 for HUVEC to IC50 for human MDA-MB-231 cells
HUVEC = assay: Cytotoxicity against HUVEC assessed as cell viability after 48 hrs by MTT assay; assay type: cell-based; conditions: Homo sapiens
CCRF-CEM [3] = assay: Selectivity index, ratio of IC50 for HUVEC to IC50 for human CCRF-CEM cells
MCF7 [4] = assay: Antiproliferative activity against human MCF7 cells assessed as cell viability after 72 hrs by MTT assay; assay type: functional, cell-based; conditions: MCF7, 72 h
MCF7 [5] = assay: Selectivity index, ratio of IC50 for HUVEC to IC50 for human MCF7 cells
A549 [6] = assay: Selectivity index, ratio of IC50 for HUVEC to IC50 for human A549 cells
CCRF-CEM [7] = assay: Antiproliferative activity against human CCRF-CEM cells assessed as cell viability after 72 hrs by MTT assay; assay type: functional, cell-based
Jurkat [8] = assay: Selectivity index, ratio of IC50 for HUVEC to IC50 for human Jurkat cells
HeLa [9] = assay: Selectivity index, ratio of IC50 for HUVEC to IC50 for human HeLa cells
HeLa [10] = assay: Antiproliferative activity against human HeLa cells assessed as cell viability after 72 hrs by MTT assay; assay type: functional, cell-based
MDA-MB-231 [11] = assay: Antiproliferative activity against human MDA-MB-231 cells assessed as cell viability after 72 hrs by MTT assay; assay type: functional, cell-based; conditions: MDA-MB-231, 72 h
Jurkat [12] = assay: Antiproliferative activity against human Jurkat cells assessed as cell viability after 72 hrs by MTT assay; assay type: functional, cell-based
MDA-MB-231 [13] = assay: Potency index, ratio of etoposide IC50 to compound IC50 for human MDA-MB-231 cells; assay type: functional

| IC50 (A549 [1]) [µM] | IC50 (MCF7 [4]) [µM] | IC50 (CCRF-CEM [7]) [µM] | IC50 (HeLa [10]) [µM] | IC50 (MDA-MB-231 [11]) [µM] | IC50 (Jurkat [12]) [µM] | Structure (SMILES) | Ratio IC50 [2] | IC50 (HUVEC) [µM] | Ratio IC50 (CCRF-CEM [3]) | Ratio IC50 (MCF7 [5]) | Ratio IC50 (A549 [6]) | Ratio IC50 (Jurkat [8]) | Ratio IC50 (HeLa [9]) | Ratio IC50 (MDA-MB-231 [13]) |
| --- | --- | --- | --- | --- | --- | --- | --- | --- | --- | --- | --- | --- | --- | --- |
| 34.1 | 31.6 | 9 | 27 | 12.2 | 9.5 | c1ccc(NC2=NCc3c([nH]c4ccccc34)S2)cc1 | >8 | > 100 | >11 | 3 | >2.9 | >10 | >3.7 | – |
| 32 | 29.8 | < 10 | 30 | 8.6 | 8.3 | Brc1ccc(NC2=NCc3c([nH]c4ccccc34)S2)cc1 | 7.5 | 64.8 | >6.5 | 2.2 | 2 | 7.8 | 2.2 | 2 |
| 29 | 33.8 | 1.7 | 21.7 | 8.9 | 8 | Fc1ccc(NC2=NCc3c([nH]c4ccccc34)S2)cc1 | 4.7 | 42 | 24.7 | 1.2 | 1.4 | 5.3 | 1.9 | 2 |
| 7.4 | 30 | 29.8 | 32.4 | 7.2 | 9.8 | Clc1ccc(NC2=NCc3c([nH]c4ccccc34)S2)cc1 | 1.2 | 8.5 | 0.3 | 0.3 | 1.1 | 0.8 | 0.3 | 2 |
| 30.1 | 28.7 | < 10 | 13.9 | 7.3 | 8.2 | COc1ccc(NC2=NCc3c([nH]c4ccccc34)S2)cc1 | 7 | 51 | >5.1 | 1.8 | 1.7 | 6.2 | 3.7 | 2 |
| 31.2 | 32.1 | 5 | 27.5 | 7.9 | 8 | Cc1ccc(NC2=NCc3c([nH]c4ccccc34)S2)cc1 | >12.6 | > 100 | >20 | 3.1 | >3.2 | >12.5 | >3.6 | 2 |
| 32 | 7.7 | 5 | 9.3 | 5.4 | 7.4 | O=[N+]([O-])c1ccc(NC2=NCc3c([nH]c4ccccc34)S2)cc1 | 10.7 | 58 | 11.6 | 7.5 | 1.8 | 7.8 | 6.2 | 2 |
| 40.8 | 35.7 | 10 | 72.4 | 36.2 | 10 | FC(F)(F)c1ccc(NC2=NCc3c([nH]c4ccccc34)S2)cc1 | 1.9 | 68.5 | 6.9 | 1.9 | 1.7 | 6.9 | 0.9 | – |
| 70.1 | 38.7 | 7.5 | 69.8 | 37.1 | 7.5 | FC(F)(F)c1cc(NC2=NCc3c([nH]c4ccccc34)S2)cc(C(F)(F)F)c1 | 1.3 | 49.6 | 6.6 | 1.3 | 0.7 | 6.6 | 0.7 | – |
| 29.2 | 6.2 | 12.2 | 31.7 | 40.3 | 10 | CO[C@H]1N(C(=O)OC(C)(C)C)c2ccccc2[C@@]12CN=C(Nc1ccccc1)S2 (racemic) | – | – | – | – | – | – | – | – |
| 34 | 32 | 22 | 28 | 34 | 19 | CO[C@@H]1N(C(=O)OC(C)(C)C)c2ccccc2[C@@]12CN=C(Nc1ccccc1)S2 (racemic) | – | – | – | – | – | – | – | – |
| 30 | 30 | 27 | 29 | 30 | 19 | CO[C@H]1N(C(=O)OC(C)(C)C)c2ccccc2[C@@]12CN=C(Nc1ccc(F)cc1)S2 (racemic) | – | – | – | – | – | – | – | – |
| 34 | 30.5 | 14.5 | 27.5 | 32.5 | 15 | CO[C@@H]1N(C(=O)OC(C)(C)C)c2ccccc2[C@@]12CN=C(Nc1ccc(F)cc1)S2 (racemic) | – | – | – | – | – | – | – | – |
| 16.5 | 16 | 19 | 10 | 20.5 | 7 | CO[C@@H]1N(C(=O)OC(C)(C)C)c2ccccc2[C@@]12CN=C(Nc1ccc(Cl)cc1)S2 (racemic) | – | – | – | – | – | – | – | – |
| 70.3 | 72 | 26.2 | 57.2 | 48.3 | 29.5 | CSC1=NCc2c([nH]c3ccccc23)S1 [CYCLOBRASSININ] | 1.2 | 57.9 | 2.2 | 0.8 | 0.8 | 1.9 | 1 | – |

Further lines, the compound ahead of its results:

| Structure (SMILES) | IC50 (A549 [1]) [µM] | IC50 (MCF7 [4]) [µM] | IC50 (CCRF-CEM [7]) [µM] | IC50 (HeLa [10]) [µM] | IC50 (MDA-MB-231 [11]) [µM] | IC50 (Jurkat [12]) [µM] | Ratio IC50 [2] | IC50 (HUVEC) [µM] | Ratio IC50 (CCRF-CEM [3]) | Ratio IC50 (MCF7 [5]) | Ratio IC50 (A549 [6]) | Ratio IC50 (Jurkat [8]) | Ratio IC50 (HeLa [9]) | Ratio IC50 (MDA-MB-231 [13]) |
| --- | --- | --- | --- | --- | --- | --- | --- | --- | --- | --- | --- | --- | --- | --- |
| COc1ccc(NC2=NC[C@]3(S2)c2ccccc2N(C(=O)OC(C)(C)C)[C@@H]3OC)cc1 (racemic) | 31.3 | 31.2 | 24.7 | 25 | 38.3 | 25 | – | – | – | – | – | – | – | – |
| CO[C@H]1N(C(=O)OC(C)(C)C)c2ccccc2[C@@]12CN=C(SC)S2 (racemic) | 70.5 | 70.2 | 37.9 | 74.3 | 87 | 37.3 | – | – | – | – | – | – | – | – |
| CO[C@@H]1N(C(=O)OC(C)(C)C)c2ccccc2[C@@]12CN=C(SC)S2 (racemic) | 96.3 | 100 | 41.9 | 77.6 | 97.7 | 43.4 | – | – | – | – | – | – | – | – |
| CO[C@H]1N(C(=O)OC(C)(C)C)c2ccccc2[C@@]12CN=C(Nc1ccc(Br)cc1)S2 (racemic) | 33 | 29.5 | 5 | 28 | 31.5 | 8 | – | – | – | – | – | – | – | – |
| CO[C@@H]1N(C(=O)OC(C)(C)C)c2ccccc2[C@@]12CN=C(Nc1ccc(Br)cc1)S2 (racemic) | 76 | 78 | 50 | 65.5 | > 100 | 30 | – | – | – | – | – | – | – | – |
| CO[C@H]1N(C(=O)OC(C)(C)C)c2ccccc2[C@@]12CN=C(Nc1ccc(Cl)cc1)S2 (racemic) | 26 | 36.5 | 26.5 | 20.8 | 42 | 23.5 | – | – | – | – | – | – | – | – |
| COn1cc(CNC(=S)SC)c2ccccc21 [1-METHOXYBRASSININ] | > 100 | > 100 | 63.5 | > 100 | > 100 | 37.5 | – | – | – | – | – | – | – | – |
| CSC(=S)NCc1c[nH]c2ccccc12 [BRASSININ] | > 100 | > 100 | 90.2 | > 100 | > 100 | > 100 | – | – | – | – | – | – | – | – |
| COc1ccc(/C=C\c2cc(OC)c(OC)c(OC)c2)cc1O [COMBRETASTATIN A4] | – | – | – | – | – | – | – | 0.005 | – | 2 | – | – | – | – |
| COc1cccc2c1C(=O)c1c(O)c3c(c(O)c1C2=O)C[C@@](O)(C(=O)CO)C[C@@H]3O[C@H]1C[C@H](N)[C@H](O)[C@H](C)O1 [DOXORUBICIN] | – | – | – | – | – | – | – | 0.0807 | – | – | – | – | – | – |
| COc1cc([C@@H]2c3cc4c(cc3[C@@H](O[C@@H]3O[C@@H]5CO[C@@H](C)O[C@H]5[C@H](O)[C@H]3O)[C@H]3COC(=O)[C@H]23)OCO4)cc(OC)c1O [ETOPOSIDE] | – | – | – | – | – | – | 0.06 | 1.25 | 1.14 | 0.11 | 0.09 | 1.04 | 0.32 | – |
